The source made the active and inactive calls.
Key:
[1] = biological target: Nuclear receptor subfamily 5 group A member 2 (Homo sapiens, UniProt O00482); type: functional, cell-based;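 also: HEK293T cells transfected with LRH-1 and a StAR promoter luciferase reporter; potency for inhibitors that lower LRH-1 driven reporter light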
[2] = StAR promoter reporter inhibition counter-screen, dose response, counter-screen for LRH-1 inverse agonist project, cell-based, luminescence, luciferase reporter (AID 651969); type: functional
Steroidogenic factor 1 = Steroidogenic factor 1 (Homo sapiens, UniProt Q13285); assay: Counterscreen for inverse agonists of the liver receptor homolog-1 (LRH-1; NR5A2): Luminescence-based cell-based high throughput dose response assay to identify inverse agonists of the Steroidogenic Factor 1 Nuclear Receptor (SF1; NR5A1).; type: functional
Sequence of Steroidogenic factor 1 (Q13285 whole entry): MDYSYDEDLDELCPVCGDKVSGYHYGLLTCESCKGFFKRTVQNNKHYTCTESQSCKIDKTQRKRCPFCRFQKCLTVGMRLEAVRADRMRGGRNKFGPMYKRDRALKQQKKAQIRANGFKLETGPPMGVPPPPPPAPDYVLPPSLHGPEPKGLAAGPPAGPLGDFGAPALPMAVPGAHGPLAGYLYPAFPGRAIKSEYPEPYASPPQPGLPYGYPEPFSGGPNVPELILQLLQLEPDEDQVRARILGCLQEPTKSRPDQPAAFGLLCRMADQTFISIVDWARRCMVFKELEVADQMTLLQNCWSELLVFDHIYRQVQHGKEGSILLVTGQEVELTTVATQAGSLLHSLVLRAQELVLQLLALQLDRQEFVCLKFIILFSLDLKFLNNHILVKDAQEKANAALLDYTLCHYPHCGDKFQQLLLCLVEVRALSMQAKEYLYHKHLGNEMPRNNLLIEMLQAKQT

[3] = biological target: T1, Fructose-bisphosphate aldolase (Mycobacterium tuberculosis, UniProt P9WQA3); assay: Fluorescence-based biochemical high throughput dose response assay for inhibitors of the fructose-bisphosphate aldolase (FBA) of M. tuberculosis.; type: functional
T1 sequence (P9WQA3 whole entry): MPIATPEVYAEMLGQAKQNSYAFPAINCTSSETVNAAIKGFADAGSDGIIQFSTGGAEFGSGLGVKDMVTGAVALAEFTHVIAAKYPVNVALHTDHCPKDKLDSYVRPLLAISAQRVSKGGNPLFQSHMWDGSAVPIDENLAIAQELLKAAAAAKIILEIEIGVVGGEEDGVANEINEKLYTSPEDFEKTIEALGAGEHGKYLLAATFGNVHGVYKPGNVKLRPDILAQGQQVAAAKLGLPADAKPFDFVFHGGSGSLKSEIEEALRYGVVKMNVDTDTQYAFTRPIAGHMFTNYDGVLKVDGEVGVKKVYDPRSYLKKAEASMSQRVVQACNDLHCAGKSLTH

[4] = biological target: T2, Adenosylmethionine-8-amino-7-oxononanoate aminotransferase (Mycobacterium tuberculosis, UniProt P9WQ81); assay: Mycobacterium tuberculosis BioA enzyme inhibitor Measured in Biochemical System Using Plate Reader - 2163-02_Inhibitor_Dose_CherryPick_Activity.; type: functional, Mycobacterium tuberculosis UT205
T2 sequence (P9WQ81 whole entry): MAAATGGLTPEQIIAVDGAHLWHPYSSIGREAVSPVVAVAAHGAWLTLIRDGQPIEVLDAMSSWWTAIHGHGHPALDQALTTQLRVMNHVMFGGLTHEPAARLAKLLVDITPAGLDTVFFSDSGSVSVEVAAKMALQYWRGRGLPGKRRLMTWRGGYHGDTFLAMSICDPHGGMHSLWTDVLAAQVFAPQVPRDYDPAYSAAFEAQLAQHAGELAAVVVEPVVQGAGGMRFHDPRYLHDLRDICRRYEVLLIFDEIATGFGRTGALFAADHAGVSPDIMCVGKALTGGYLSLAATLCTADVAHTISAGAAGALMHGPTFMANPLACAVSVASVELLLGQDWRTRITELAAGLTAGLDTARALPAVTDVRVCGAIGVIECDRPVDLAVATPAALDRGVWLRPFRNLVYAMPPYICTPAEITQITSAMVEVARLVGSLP

[5] = A549 cell cytotoxicity, dose response, cytotoxicity control, plate reader, cherry-pick, antagonist series (AID 743412); type: functional, cell-based
[6] = LGR2 antagonists, dose response, cell-based, HEK293, CRE-luciferase reporter, cherry pick, set 2 (AID 743343); type: functional;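 also: transfected cells were stimulated with diluted bursicon conditioned medium after compound addition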
[7] = MC4R antagonists, dose response, counter-screen for LGR2 antagonist project, cell-based, plate reader, cherry pick (AID 743444); type: functional;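 also: transfected HEK 293 cells stimulated with alpha-MSH peptide; potency of inhibitors of the alpha-MSH evoked signal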
[8] = HEK293T cytotoxicity, dose response, cytotoxicity control for miR-122 modulator project, cell-based, inhibitor set, cherry-pick, set 2 (AID 720697); type: functional
Protein skinhead-1 = biological target: T3, Protein skinhead-1 (Caenorhabditis elegans, UniProt P34707); type: functional
T3 sequence (P34707 whole entry): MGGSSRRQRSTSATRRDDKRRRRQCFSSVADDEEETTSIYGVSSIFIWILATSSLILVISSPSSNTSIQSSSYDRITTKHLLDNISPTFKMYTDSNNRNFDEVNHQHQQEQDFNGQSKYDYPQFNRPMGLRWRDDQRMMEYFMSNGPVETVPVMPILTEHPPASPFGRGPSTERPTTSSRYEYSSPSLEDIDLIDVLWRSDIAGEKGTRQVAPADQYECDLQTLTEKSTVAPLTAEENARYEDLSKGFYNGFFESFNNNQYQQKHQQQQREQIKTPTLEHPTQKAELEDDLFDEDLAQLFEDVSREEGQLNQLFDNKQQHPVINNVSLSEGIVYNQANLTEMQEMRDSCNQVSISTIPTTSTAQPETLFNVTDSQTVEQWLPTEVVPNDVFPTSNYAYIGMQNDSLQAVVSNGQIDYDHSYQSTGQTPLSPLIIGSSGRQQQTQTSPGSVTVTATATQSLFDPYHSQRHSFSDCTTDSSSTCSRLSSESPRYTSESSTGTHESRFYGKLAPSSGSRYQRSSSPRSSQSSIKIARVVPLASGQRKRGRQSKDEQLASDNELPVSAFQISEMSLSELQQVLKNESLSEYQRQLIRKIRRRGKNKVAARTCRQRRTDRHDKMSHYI

cells [9] = type: functional, cell-based
cells [10] = type: functional, cell-based; remark: listed apart in the source
[11] = biological target: T4, Oxysterols receptor LXR-beta (Homo sapiens, UniProt P55055); type: functional, cell-based;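 also: agonist activity at LXR measured by a cell-based luminescence readout across a dose range, run as a counterscreen for daf-12 agonists; HEK293 cells with Gal4-LXR fusion and GAL4-driven luciferase reporter; potency for activation of Gal4-LXR reporter so compounds are agonists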
T4 sequence (P55055 whole entry): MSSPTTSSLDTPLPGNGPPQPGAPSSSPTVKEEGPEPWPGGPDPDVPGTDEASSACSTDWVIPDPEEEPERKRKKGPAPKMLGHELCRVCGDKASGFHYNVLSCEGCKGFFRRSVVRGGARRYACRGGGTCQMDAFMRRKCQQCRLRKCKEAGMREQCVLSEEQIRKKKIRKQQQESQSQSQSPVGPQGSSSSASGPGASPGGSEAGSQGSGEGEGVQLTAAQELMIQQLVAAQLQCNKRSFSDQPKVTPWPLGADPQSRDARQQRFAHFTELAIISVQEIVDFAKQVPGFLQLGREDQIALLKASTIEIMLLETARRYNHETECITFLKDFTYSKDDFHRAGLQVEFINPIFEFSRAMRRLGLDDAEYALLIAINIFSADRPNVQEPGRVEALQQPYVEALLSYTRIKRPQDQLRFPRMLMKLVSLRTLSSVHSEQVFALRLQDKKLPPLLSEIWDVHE

[12] = Luminescence-based cell-based high throughput dose response assay to identify activators of the DAF-12 from the parasite S. stercoralis (ssDAF-12).; type: functional
Paired box protein Pax-8 = Paired box protein Pax-8 (Homo sapiens, UniProt Q06710); assay: inhibitors of PAX8-driven TPO luciferase reporter, dose response, RMG-I cells, cherry-pick (AID 687027); type: functional, cell-based;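 also: luciferase reporter driven by Pax8 target thyroperoxidase promoter measured by SteadyGlo luminescence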
Sequence of Paired box protein Pax-8 (Q06710 whole entry): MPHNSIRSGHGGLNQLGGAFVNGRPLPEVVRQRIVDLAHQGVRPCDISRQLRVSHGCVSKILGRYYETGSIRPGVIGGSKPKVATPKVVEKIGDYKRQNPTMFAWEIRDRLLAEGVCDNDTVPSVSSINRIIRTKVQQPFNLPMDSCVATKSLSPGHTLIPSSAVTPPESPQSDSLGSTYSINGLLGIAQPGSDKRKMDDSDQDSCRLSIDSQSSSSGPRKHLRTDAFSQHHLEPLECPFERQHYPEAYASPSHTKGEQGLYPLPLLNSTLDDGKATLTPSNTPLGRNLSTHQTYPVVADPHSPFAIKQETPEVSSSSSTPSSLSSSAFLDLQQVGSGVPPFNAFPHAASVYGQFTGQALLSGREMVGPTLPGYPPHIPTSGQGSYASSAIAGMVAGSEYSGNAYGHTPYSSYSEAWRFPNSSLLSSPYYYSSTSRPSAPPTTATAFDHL

[13] = Luminescence Cell-Based Dose Retest to Confirm Inhibitors of Cancer Stem Cells. [Related pubchem assays (depositor defined):AID2717, AID2721]; type: functional; conditions: Homo sapiens
[14] = intracellular Trypanosoma cruzi inhibitors in host cells – cell-based, plate reader, cherry-pick samples, set 3, dose response (AID 651818); type: functional;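 also: compounds incubated with infected cells for about four days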
[15] = Counterscreen for inhibitors of Trypanosoma brucei methionyl tRNA synthetase (MetRS): Luminescence-based cell-based high throughput dose response assay to identify compounds that are cytotoxic to Jurkat human T lymphocyte cells.; type: functional
[16] = biological target: T5, Methionyl-tRNA synthetase, putative (Trypanosoma brucei brucei, UniProt Q38C91); type: functional, Trypanosoma brucei brucei strain 927/4 GUTat10.1
T5 sequence (Q38C91 whole entry): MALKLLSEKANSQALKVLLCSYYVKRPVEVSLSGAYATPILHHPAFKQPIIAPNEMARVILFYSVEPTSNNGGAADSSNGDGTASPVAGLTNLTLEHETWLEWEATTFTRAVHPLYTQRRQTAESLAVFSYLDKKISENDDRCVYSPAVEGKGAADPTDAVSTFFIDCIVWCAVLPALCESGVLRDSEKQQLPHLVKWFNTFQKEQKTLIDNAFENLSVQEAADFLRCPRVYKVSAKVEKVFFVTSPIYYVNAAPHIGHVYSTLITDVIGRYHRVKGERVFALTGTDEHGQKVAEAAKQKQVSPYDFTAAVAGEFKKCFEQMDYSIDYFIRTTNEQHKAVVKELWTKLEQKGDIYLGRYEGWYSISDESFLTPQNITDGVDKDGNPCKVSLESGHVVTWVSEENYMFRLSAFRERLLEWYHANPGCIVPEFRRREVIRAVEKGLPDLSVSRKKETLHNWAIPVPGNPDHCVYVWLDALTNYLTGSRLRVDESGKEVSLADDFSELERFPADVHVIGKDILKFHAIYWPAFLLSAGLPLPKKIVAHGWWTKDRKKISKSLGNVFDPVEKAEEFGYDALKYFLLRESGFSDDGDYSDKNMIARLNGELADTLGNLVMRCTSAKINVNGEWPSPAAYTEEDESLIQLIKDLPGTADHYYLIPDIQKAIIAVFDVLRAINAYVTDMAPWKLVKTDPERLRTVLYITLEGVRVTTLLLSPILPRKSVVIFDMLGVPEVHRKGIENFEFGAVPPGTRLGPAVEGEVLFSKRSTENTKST

[17] = biological target: T5, Methionyl-tRNA synthetase, putative; type: functional, Trypanosoma brucei brucei strain 927/4 GUTat10.1; remark: listed apart in the source
[18] = miR-122 activators in hepatoma reporter cells, dose response, cell-based, Huh7 psiCHECK-miR122, Renilla luciferase, cherry-picked (AID 651956); type: functional;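 also: huh7 hepatoma cells stably carrying a psiCHECK-2 miR-122 sensor plasmid; renilla luciferase signal reporting endogenous miR-122 activity after 48 h compound exposure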

Sequence of Nuclear receptor subfamily 5 group A member 2 (O00482 whole entry): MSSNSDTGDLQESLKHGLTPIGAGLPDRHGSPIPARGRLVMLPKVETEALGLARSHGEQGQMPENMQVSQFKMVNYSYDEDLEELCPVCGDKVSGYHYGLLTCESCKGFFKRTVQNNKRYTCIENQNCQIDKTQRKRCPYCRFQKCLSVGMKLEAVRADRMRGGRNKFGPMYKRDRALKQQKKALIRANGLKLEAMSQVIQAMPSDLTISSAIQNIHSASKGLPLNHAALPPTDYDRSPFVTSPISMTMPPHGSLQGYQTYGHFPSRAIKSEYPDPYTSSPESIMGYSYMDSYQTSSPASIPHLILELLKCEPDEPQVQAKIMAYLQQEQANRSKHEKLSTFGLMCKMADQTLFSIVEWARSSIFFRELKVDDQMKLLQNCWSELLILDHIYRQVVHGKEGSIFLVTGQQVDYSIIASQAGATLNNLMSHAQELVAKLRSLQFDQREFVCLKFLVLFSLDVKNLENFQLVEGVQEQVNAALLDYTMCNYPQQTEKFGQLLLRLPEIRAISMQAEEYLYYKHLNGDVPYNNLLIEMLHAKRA

CCCN(CC(=O)Nc1ccc(C(N)=O)cc1)CC(=O)Nc1ccccc1C
IC50 [1]: 5.11 µM (active)
IC50 [2]: 24.9 µM (inactive)
IC50 (Steroidogenic factor 1): 2.88 µM (active)

COc1ccc2oc(=N)c(-c3nnc4n3CCCCC4)cc2c1
IC50 [3]: 4.68 µM (active)

C=C(C)n1c(=O)n(Cc2ccccc2C)c2ccccc21
AC50 [4]: 1.32 µM (active)

COC(=O)C1C(=O)C=C(Nc2ccc(F)cc2)CC1c1ccc(OC)cc1 (centres undefined)
AC50 [4]: 1.01 µM (active)

COc1ccc(-c2cc(C(=O)Nc3cccc(O)c3)no2)cc1
AC50 [5]: > 52 µM (inactive)
AC50 [6]: 9.77 µM (active)
AC50 [7]: 7.86 µM (active)

COc1ccc(CNCCC(c2ccc(OC)cc2)c2ccccc2OC)cc1 (centres undefined)
AC50 [8]: 3.94 µM (active)
IC50 (Protein skinhead-1): > 100 µM (inactive)

COc1ccccc1CCNCc1cc2c(cc1[N+](=O)[O-])OCO2
EC50 (cells [9]): > 29.9 µM (inactive)
IC50 (cells [10]): > 29.9 µM (inactive)

CCOc1ccc(NC(=O)COC(=O)C2CCC(=O)N2)c([N+](=O)[O-])c1 (centres undefined)
IC50 [1]: 35.8 µM (inactive)
IC50 [2]: 35.8 µM (inactive)
IC50 (Steroidogenic factor 1): 35.8 µM (inactive)

Cc1ccc(SCCSc2ncccn2)cc1
EC50 [11]: > 67.5 µM (inactive)

Cc1cc(OCC(=O)NCC(O)c2ccccc2)c2c(C)cc(=O)oc2c1 (centres undefined)
IC50 [3]: 1.26 µM (active)

CC(=O)c1ccc2c3c(cccc13)C(=O)N(CCc1ccccc1)C2=O
EC50 (cells [9]): > 29.9 µM (inactive)
IC50 (cells [10]): > 29.9 µM (inactive)
IC50 [12]: > 67.5 µM (inactive)

COc1ccc2c(c1)cc(C(=O)N[C@@H](Cc1ccccc1)C(=O)N[C@@H](C)C(=O)O)n2C
IC50 [3]: 1.29 µM (active)

CCN(CC)S(=O)(=O)c1ccc(NC(=O)c2ccc(Cl)nc2)cc1
AC50 [4]: 6.89 µM (active)

C[C@@H]1CN([C@@H](C)CO)C(=O)Cc2cc(NC(=O)Nc3ccc(C(F)(F)F)cc3)ccc2O[C@@H]1CN(C)S(=O)(=O)c1ccc(Cl)cc1
AC50 (Paired box protein Pax-8): 10.3 µM (active)
AC50 [13]: 1.28 µM (active)
AC50 [14]: 3.51 µM (active)

CN(C(=O)CSc1nc2cc(Cl)ccc2[nH]1)C1CCS(=O)(=O)C1 (centres undefined)
IC50 [15]: 83.2 µM (inactive)

CN(C(=O)CSc1nc2ccc(Cl)cc2[nH]1)C1CCS(=O)(=O)C1 (centres undefined)
IC50 [16]: 64.5 µM (inactive)
IC50 [17]: 21.7 µM (inactive)

OC(c1cccc(Cl)c1)c1nc(-c2ccc3ccccc3c2)c[nH]1 (centres undefined)
IC50 [16]: 14.2 µM (inactive)
IC50 [17]: 5.6 µM (active)
IC50 [15]: 83.3 µM (inactive)

Cc1noc(C)c1S(=O)(=O)Nc1ccc2c(c1)C(=O)N([C@H](C)CO)C[C@H](C)[C@H](CN(C)C(=O)Nc1ccc(C(F)(F)F)cc1)O2
AC50 [14]: 4.97 µM (active)

C[C@H](CO)N1C[C@H](C)[C@H](CN(C)Cc2ccc(C(=O)Nc3ccccc3N)cc2)Oc2c(NS(=O)(=O)c3cccs3)cccc2C1=O
AC50 [14]: 1.87 µM (active)

Cc1cccc(NC(=O)Nc2ccc3c(c2)C(=O)N(C)[C@@H]2CC[C@@H](CC(=O)NCc4ccccc4Cl)O[C@H]2CO3)c1
AC50 [18]: 3.32 µM (active)

Cc1noc(C)c1NC(=O)N(C)C[C@@H]1Oc2cc(C#CCC3CCCC3)ccc2S(=O)(=O)N([C@@H](C)CO)C[C@@H]1C
AC50 [18]: 18.9 µM (active)

Cc1no[n+]([O-])c1COc1ccc(/C=N/n2nnnc2N)cc1
IC50 [1]: 35.9 µM (inactive)
IC50 [2]: 35.9 µM (inactive)
IC50 (Steroidogenic factor 1): 12 µM (inactive)

Reference: ChEMBL document CHEMBL1201862, “PubChem BioAssay data set” (2004)
